Test [1] is described as follows: MIC of common antibiotics in the presence of sub-MIC levels of cationic peptides. Type of test: cell-based. The source says:
The ability of the cationic peptides to work synergistically was examined by determining the MIC values for some commonly used antibiotics in the presence of sub-MIC levels of cationic peptides (Table 4). […] This may be due to the high membrane permeabilizing activity of CEMA (see below). However, the peptides did lower the MIC of polymyxin B, possibly due to the fact that they are all taken up by the same pathway and are therefore aiding each other's uptake. Of interest is the influence that melittin has on the MIC of polymyxin B, given the weak membrane permeabilizing activity of melittin.

For the next test, the system named is S. typhimurium. The experiment in a line: microbe, parasite or virus in culture. Type of test: cell-based, Salmonella typhimurium. On the procedure: (§1) The minimum inhibitory concentrations of (MIC) of CEME, CEMA and melittin were determined for a number of different bacteria (Table 2). Briefly, cells were grown overnight at 37° C. in LB-S (Luria broth without any salt supplement) and diluted one in 10,000 in the same medium to give concentrations of about 10^4 to 10^5 CFU/ml. The broth dilutions were set up in a 96 well microtiter plate by putting 200 μl of LB-S containing the initial concentration of antibiotic or compound in column 1 and 100 μl of the same medium in columns 2-12. The compounds were diluted by taking 100 μl of broth from column 1 and mixing it with column 2, resulting in a one in two dilution. This was continued to column 10. Finally, 10 μl of bacteria were pipetted into columns 1-11, and the plates incubated overnight at 37° C. The next day the plates were scored for growth in the wells, and the MIC determined.
(§2) Bacteria included the Bort strain of E. coli (Bortolussi, et al., Inf. Immun., 25:293, 1979) that was originally derived from a case of neonatal meningitis, and which is therefore considered a relevant pathogenic strain to study, and the 0111:B4 strain of E. coli (kindly provided by Dr. D. Morrison) which is a standard source of endotoxin. (Kelly, et al., Inf. Immun., 59:4491, 1991). In addition, P. aeruginosa PA01 strain H103, P. aeruginosa M2, P. aeruginosa K799, Eschericha coli UB 1005, Enterobacter cloacae 218S, Salmonella typhimurium MS7953s, Klebsiella pneumoniae ATCC 13883, Xanthomonas maltophilia ATCC 13637, and Acinetobacter calcoacetious 8193 were employed. LPS was obtained from E. coli Bort by the technique of Westphal and Jann, (Westphal, et al., Acad. Press, Inc. NY., 5:83) and from P. aeruginosa H103 by the method of Darveau and Hancock, (Darveau, et al., J. Bacteriol, 155:831, […]). E. coli 0111:B4 LPS was purchased from Sigma.

Another test relates to P. AERUGINOSA H309. Kind of test: microbe, parasite or virus in culture. The test is classed as cell-based, Pseudomonas aeruginosa. On the procedure: as §1, with “Briefly,” for “The minimum inhibitory concentrations of (MIC) of CEME, CEMA and melittin were determined for a number of different bacteria (Table 2). Briefly,”
The test system of a further test is P. aeruginosa. Kind of test: microbe, parasite or virus in culture. Type of test: cell-based, Pseudomonas aeruginosa. On the procedure:
as §1, §2

Another test relates to S. aureus. The experiment in a line: microbe, parasite or virus in culture. The test is classed as cell-based, Staphylococcus aureus. On the procedure:
as §1

The test system of another test is E. cloacae. The experiment in a line: microbe, parasite or virus in culture. The test is classed as cell-based, Enterobacter cloacae. On the procedure:
as §1, §2

The next test has as its system E. coli. Kind of test: microbe, parasite or virus in culture. Type of test: cell-based, Escherichia coli. The procedure:
as §1, §2

Test [2] has as its system P. aeruginosa H309 Whole Cells. The experiment in a line: DPx binding inhibition using whole cells. Also noted: species or system Pseudomonas aeruginosa. The following applies: DPx at 90-100% binding saturation, average of at least three trials. On the procedure: For DPx binding inhibition assays using whole cells instead of purified LPS, H309 cells were prepared the same way as for the lysozyme lysis assay. The assay consisted of 10 μl of cells at an OD600 of 0.5, 990 μl of 5 mM HEPES pH 7.2 and 5 mM KCN, and the concentration of DPx that gave 90-100% binding saturation. […] Compounds were titrated in, and I50 values were determined as described above.

A further test has as its target P. aeruginosa H103 LPS. The experiment in a line: Dansyl polymyxin (DPx) displacement from purified LPS. Type of test: binding, Pseudomonas aeruginosa. The following applies: 2.5 μM DPx, 3 μg/ml LPS, 5 mM HEPES pH 7.2, average of at least three trials. The procedure: In this assay, DPx was incubated with LPS to saturate the binding sites and then, while polycationic compounds are titrated into the reaction, displacement of the DPx was monitored by the decrease in fluorescence (FIG. 9). P. aeruginosa LPS was isolated as previously described (Darveau, et al., J of Bacteriology, 155:831, 1983) Dansyl polymyxin was synthesized as described by Schindler, et al., B. Antimicrobial Agents and Chemo, 8:95, 1975.
The method of Moore, et al., (Antimicrobial Agents and Chemo., 29:496, 1987), was used to test how much DPx was needed to saturate the binding sties on LPS. Briefly, 5 μl samples of 100 μM DPx were titrated sequentially into 1 ml of 3 μg/ml of LPS until a maximum fluorescence was reached. The fluorescence was measured in a Perkin-Elmer 650-10S fluorescence spectrophotometer with an excitation wavelength of 340 nm and an emission wavelength of 485 nm using slit widths of 5 nm. […] For the binding inhibition assays (Moore, et al., Antimicrobial Agents and Chemo., 29:496, 1987), 2.5 μM DPx was added to 3 μg/ml of H103 LPS in 5 mM HEPES pH 7.2. The test compounds were added 5 μl at a time and the decrease in fluorescence due to displacement of the DPx from the LPS was recorded.
When the data was plotted as a double reciprocal plot (FIG. 10), the X-intercept provided a value that is equal to -1/I50.

This note sets out measurements from patent publication US5688767A, “Treatment of endotoxin-associated disorders with cationic peptides” (priority 1996, dated 1997).

Converted amounts (≈) assume the structure as drawn. Read-outs that look alike come from different tables or passages of the source.

Turning to `C[C@@H](O)[C@H]1C(=O)N2C(C(=O)O)=C(SCCN=CN)C[C@H]12` [Imipenem, imipenem], the “MIC in the presence of” value in test [1] (CEMA 0.7 μg/ml) was found to be 4 μg/m1; in [1] (CEMA 1.4 μg/ml), 2 μg/m1; in test [1] (CEME 0.6 μg/ml) it was 4 μg/m1; in test [1] (CEME 1.2 μg/ml) it was 4 μg/m1; in test [1] (Melittin 2 μg/ml) it was 4 μg/m1; in [1] (Melittin 4 μg/ml) it was 4 μg/m1. In test [1] (No peptide), the “MIC in the presence of” value was 4 μg/m1.
For the compound `CC(C)(O/N=C(\C(=O)N[C@@H]1C(=O)N2C(C(=O)[O-])=C(C[n+]3ccccc3)CS[C@H]12)c1csc(N)n1)C(=O)O` [Ceftazidime, ceftazidime], the MIC was 0.25 µg/mL (≈ 0.457 µM) against S. typhimurium (Salmonella enterica, TYPHIMURIUM); 0.25 µg/mL (≈ 0.457 µM) with S. typhimurium (strain C590, Defensin sensitive); 2 µg/mL (≈ 3.66 µM) with P. AERUGINOSA H309 (Pseudomonas aeruginosa, +5 mM Mg^++, read-out: MIC); 2 µg/mL (≈ 3.66 µM) with P. AERUGINOSA H309 (Pseudomonas aeruginosa, +80 mM Na^+, read-out: MIC); 1 µg/mL (≈ 1.83 µM) with P. AERUGINOSA H309 (Pseudomonas aeruginosa, No addition, read-out: MIC); 2 µg/mL (≈ 3.66 µM) with P. aeruginosa (Pseudomonas aeruginosa, strain H187, Parent of H188, read-out: MIC). Also, the MIC is 0.03 µg/mL (≈ 0.0549 µM) with P. aeruginosa (Pseudomonas aeruginosa, strain H188, Antibiotic sensitive, read-out: MIC); 1 µg/mL (≈ 1.83 µM) with P. aeruginosa (Pseudomonas aeruginosa, strain H309, Wildtype, read-out: MIC); 8 µg/mL (≈ 14.6 µM) in the test with S. aureus (Staphylococcus aureus, strain RN4220, Methicillin sensitive); more than 16 µg/mL against S. aureus (Staphylococcus aureus, strain SAP0017, Methicillin resistant); more than 16 µg/mL against E. cloacae (Enterobacter cloacae, strain 218R1, β-lactam resistant); 0.5 µg/mL (≈ 0.915 µM) with E. cloacae (Enterobacter cloacae, strain 218S, Parent of 218R1 (Table 2)). Also, the MIC stood at 0.12 µg/mL (≈ 0.22 µM) in the test with E. coli (Escherichia coli, SC9251 / SC9252, strain SC9251, Parent of SC9252); 0.5 µg/mL (≈ 0.915 µM) against E. coli (Escherichia coli, SC9252, strain SC9252, Polymyxin resistant); 0.06 µg/mL (≈ 0.11 µM) against E. coli (Escherichia coli, strain DC2, Polymyxin sensitive); 0.5 µg/mL (≈ 0.915 µM) in the test with E. coli (Escherichia coli, strain UB1005, Parent of DC2 (Table 2)). The “MIC in the presence of” value in test [1] (CEMA 0.7 μg/ml) was found to be 2 μg/m1; in test [1] (CEMA 1.4 μg/ml) it was 2 μg/m1; in test [1] (CEME 0.6 μg/ml) it was 4 μg/m1; in test [1] (CEME 1.2 μg/ml), 4 μg/m1; in test [1] (Melittin 2 μg/ml), 4 μg/m1; in test [1] (Melittin 4 μg/ml), 2 μg/m1. For the same compound, the “MIC in the presence of” value in [1] (No peptide) stood at 4 μg/m1.
Consider gentamicin, for which the “I50, Value in μg/ml” value in test [2] was 36.92 ± 9.12 µg/mL; at P. aeruginosa H103 LPS, 18.16 ± 6.77 µg/mL. The MIC came out at 4 µg/mL with P. AERUGINOSA H309 (+5 mM Mg^++); 1 µg/mL against P. AERUGINOSA H309 (+80 mM Na^+); 1 µg/mL with P. AERUGINOSA H309 (No addition); 1 µg/mL with P. aeruginosa (strain H187, Parent of H188); 0.25 µg/mL with P. aeruginosa (strain H188, Antibiotic sensitive); 1 µg/mL against P. aeruginosa (strain H309, Wildtype). The MIC was 2 µg/mL in the test on S. aureus (strain RN4220, Methicillin sensitive); more than 8 µg/mL in the test with S. aureus (strain SAP0017, Methicillin resistant); 0.5 µg/mL in the test with E. cloacae (strain 218S, Parent of 218R1 (Table 2)); 1 µg/mL in the test with E. coli (strain UB1005, Parent of DC2 (Table 2)). Besides, the IC50 at P. aeruginosa H103 LPS (read-out: I50, Value in μM) came to 19.2 ± 7.18 µM.
On to `CN(C)[C@@H]1C(O)=C(C(N)=O)C(=O)[C@@]2(O)C(O)=C3C(=O)c4c(O)cccc4[C@@](C)(O)[C@H]3C[C@@H]12` [Tetracycline, tetracycline], for which the “MIC in the presence of” value in test [1] (CEMA 0.7 μg/ml) was found to be 8 μg/m1; in test [1] (CEMA 1.4 μg/ml), 4 μg/m1; in test [1] (CEME 0.6 μg/ml), 8 μg/m1; in [1] (CEME 1.2 μg/ml), 8 μg/m1; in test [1] (Melittin 2 μg/ml) it was 8 μg/m1; in test [1] (Melittin 4 μg/ml) it was 8 μg/m1. The “MIC in the presence of” value in test [1] (No peptide) is given as 8 μg/m1.
